Results on five compounds are retold here after ChEMBL document CHEMBL2069185, “Eunicidiol, an anti-inflammatory dilophol diterpene from Eunicea fusca” (J Nat Prod, 2012).

For data set [1], the system named is Mus musculus. Description: Antiinflammatory activity in CD1 mouse ear edema model assessed as reduction in phorbol myristate acetate-induced edema administered topically at right ear 1 hr before phorbol myristate acetate challenge and measured 6 to 24 hrs post dose. Format: functional.
For data set [2], the system named is Mus musculus. Description: Toxicity in CD1 mouse model phorbol myristate acetate-induced ear edema model at 0.1 mg/ear administered topically at right ear 1 hr before phorbol myristate acetate challenge and measured 24 hrs post dose. Format: organism-based. The note with it: in vivo, topical_or_ocular.
Data set [3] concerns Mus musculus. The data set is described as follows: Antiinflammatory activity in CD1 mouse ear edema model assessed as reduction in phorbol myristate acetate-induced edema at 0.1 mg/ear administered topically at right ear 1 hr before phorbol myristate acetate challenge and measured 24 hrs post dose. Format: functional.

Turning to `CC(=O)O[C@@H]1[C@@H](O[C@H]2CC[C@H](C)[C@@]3(C)C[C@@H](/C(C)=C/C=C/C(C)(C)O)CC[C@H]23)OC[C@@H](O)[C@H]1O`, the “inhibition (INH)” value in the data set with Mus musculus [1] worked out at 85%. For `C=C1CC/C=C(\C)CC[C@H](/C(C)=C/C=C/C(C)(C)O)C[C@H]1O` (relative stereo), the Activity entry in the data set with Mus musculus [2] was “Non-toxic”. Regarding `C/C1=C\C[C@@H](/C(C)=C/C=C/C(C)(C)O)CC/C(C)=C/CC1` [EUNICOL], in the data set on Mus musculus [3], the “inhibition (INH)” value came out at 0.1%. For the same compound, the Activity entry in the data set with Mus musculus [2] is “Non-toxic”.

`C=C[C@@]1(C)CC[C@H](/C(C)=C/C=C/C(C)(C)O)C[C@@H]1C(=C)C` [FUSCOL]: the Activity result in the data set with Mus musculus [2] is reported as “Non-toxic”. Turning to `C=C[C@@]1(C)CC[C@H](/C(C)=C/C=C/C(C)(C)O[C@@H]2OC[C@@H](O)[C@@H](O)[C@@H]2O)C[C@@H]1C(=C)C` [FUSCOSIDE B], the “inhibition (INH)” value in the data set on Mus musculus [1] came to 52%.
